Results on 32 compounds are retold here after article PMC12040169 (PLOS Biology, 2025).

The term viability denotes a read-out of living cells in per cent, often relative to untreated cells.

The nature of this data set: in vitro. The note with it: human, hela cells, % viability.

SMILES strings stand for the structures.

As for `CC1CCC(N(C)Cc2nc3sc4c(c3c(=O)[nH]2)CCC4)CC1` (centres unmarked) [CBK305876], the viability at 28.5 h, 10 µM came to 88.7%.
The figure for `Cc1ccc(C(=O)O)cc1S(=O)(=O)N(CCO)CCO` [CBK267335] is 102%; for `Cc1onc(-c2ccccc2)c1CNC(=O)c1cccc(C(F)(F)F)c1` [CBK144079] it is 93.6%; for `CCOC(=O)C1CCN(C(=O)c2cnn3c(C)c(Cc4cccc(Cl)c4)c(C)nc23)CC1` [CBK160305] it is 92.5%.
For `O=C(CN1C(=O)c2ccc([N+](=O)[O-])cc2C1=O)Nc1cc(Cl)ccc1C(=O)O` [CBK263472], the viability at 28.5 h, 10 µM is 97.1%.
The figure for `CC1(COC(=O)N2CCC(OCc3cnc(-c4ccc(S(C)(=O)=O)cc4)cn3)CC2)COC1` [CBK172009] is 86.7%; for `O=C(NCc1cccnc1)N1CCN(CCc2ccccc2)CC1` [CBK158906] it is 93.7%.
The figure for `NC(=O)NC(Cc1c[nH]c2ccccc12)C(=O)O` (centres unmarked) [CBK218895] is 105%; for `O=C(Cc1ccc([N+](=O)[O-])cc1)Nc1ccc(O)cc1C(=O)O` [CBK265977] it is 97.6%.
Consider `O=C(NCCc1c[nH]c2ccc(Cl)cc12)c1cccnc1` [CBK159778], for which the viability at 28.5 h, 10 µM was determined as 106%.
The figure for `CCCN1CCc2c(sc3nc(SCC(=O)OC)nc(N)c23)C1` [CBK126911] is 96.6%; for `FC(F)(F)c1ccnc(OC2CCNC2)n1` (centres unmarked) [CBK113296] it is 92.1%.
With `Clc1cc(N[C@@H]2CCN(Cc3ccccc3)C2)n2nccc2n1` [CBK037069] the figure was 92.3%.
With `CC(=O)Nc1cccc(Oc2nccnc2-c2ccc(C)cc2C)c1` [CBK106986] the figure was 95.3%; with `CC(C)c1cc2c(s1)NC(c1ccccc1)NC2=O` (centres unmarked) [CBK288209], 92.9%; with `Clc1cccc(C2N(Cc3ccccc3)CCN2Cc2ccccc2)c1` [CBK261222], 93.1%.
On to `CSc1nnnn1-c1cccc(NC(=O)N2CCCN(C)CC2)c1` [CBK304180], for which the viability at 28.5 h, 10 µM turned out to be 78.1%.
On to `O=C(NCCCn1ccnc1)c1ncoc1-c1ccccc1F` [CBK283917], for which the viability at 28.5 h, 10 µM came out at 96%.
With `Cn1cc([C@@H]2CN(Cc3cccs3)C[C@H]2N)c2ccncc21` [CBK285320] the figure was 98.9%; with `O=c1cc(-c2ccc(Br)cc2)nc2[nH]ccn12` [CBK016446], 81%; with `CCCCSc1nnc2c(n1)OC(/C=C/c1ccc([N+](=O)[O-])o1)Nc1ccccc1-2` (centres unmarked) [CBK262565], 101%.
For the compound `COC(=O)c1cc(NS(=O)(=O)c2cc(Cl)ccc2Cl)cc(C(=O)OC)c1` [CBK077853], the viability at 28.5 h, 10 µM stood at 105%.
With `O=S(=O)(N1CCOCC1)N1CCN(CC(O)COc2ccc(-c3ccccc3)cc2)CC1` (centres unmarked) [CBK269301] the figure was 106%.
With `COc1ccc(C(C)C)cc1-c1nccnc1NCc1ccco1` [CBK036672] the figure was 98%.
For the compound `Cc1ccc(OC(C)C(=O)Nc2ccc(S(=O)(=O)Nc3cc(C)on3)cc2)cc1` (centres unmarked) [CBK268757], the viability at 28.5 h, 10 µM is 89.6%.
On to `Cc1ccc(-c2csc(NC(=O)CN3C(=O)CCC3=O)n2)cc1` [CBK287346], for which the viability at 28.5 h, 10 µM turned out to be 98.3%.
In the case of `Nc1nc(OCCn2cccc2)cnc1-c1ccsc1` [CBK145162], the viability at 28.5 h, 10 µM was 92.1%.
The figure for `N#Cc1ccc(CNC(=O)N2CCCC(CO)C2)cc1` (centres unmarked) [CBK156043] is 94.3%; for `COc1ccc(Cn2nc(-c3nc(C)no3)c3ccccc32)cc1` [CBK105834] it is 90.7%; for `CCn1nc(CO)c2c1CCN(CC(=O)NCc1cccs1)C2` [CBK307638] it is 92.8%.
Regarding `CCCC(=O)c1ccc(S(=O)(=O)N2CCCN(Cc3c(C)[nH]c(C(=O)OCC)c3C)CC2)cc1` [CBK062947], the viability at 28.5 h, 10 µM amounted to 101%.
For `CCNCCNc1ccc([N+](=O)[O-])cc1` [CBK264179C], the viability at 28.5 h, 10 µM came out at 94.1%.
